Experimental data as given in patent US8399493B2, “Pyridinone derivatives and their use as positive allosteric modulators of mGluR2-receptors” (Janssen Pharmaceuticals, Inc., priority 2004, dated 2013).
Structures can show the parent of a compound that is named as a salt.

| melting point [°C] | Compound |
| --- | --- |
| 126 | COc1ccc(-c2ccc(=O)n(Cc3ccc(OC)nc3)c2)cc1 (as salt: HCl) [4-46] |
| 72 | O=c1ccc(C2CCCCC2)cn1Cc1ccc(Cl)cc1 [2-01, 1-(4-Chlorobenzyl)-5-cyclohexylpyridin-2(1H)-one] |
| 126 to 128 | Cc1ccc(-c2ccc(=O)n(Cc3ccc(Cl)cc3)c2)cc1 [2-03] |
| 115 | CC(C)Cc1ccc(-c2ccc(=O)n(Cc3ccc(Cl)cc3)c2)cc1 [2-04] |
| 73 | CCC(C)c1ccc(-c2ccc(=O)n(Cc3ccc(Cl)cc3)c2)cc1 (stereo not shown) [2-05] |
| 125 | C=Cc1ccc(-c2ccc(=O)n(Cc3ccc(Cl)cc3)c2)cc1 [2-06] |
| 109 to 112 | Cc1ccc(-c2ccc(=O)n(Cc3ccc(Cl)cc3)c2)cc1F [2-10] |
| 89 | COc1ccc(-c2ccc(=O)n(Cc3ccc(Cl)cc3)c2)c(F)c1 [2-11] |
| 202 | O=c1ccc(-c2ccc(O)cc2)cn1Cc1ccc(Cl)cc1 [2-13] |
| 155 | O=c1ccc(-c2ccc(CO)cc2)cn1Cc1ccc(Cl)cc1 [2-14] |
| 157 | CC(C)(O)c1ccc(-c2ccc(=O)n(Cc3ccc(Cl)cc3)c2)cc1 [2-15, 1-(4-Chlorobenzyl)-5-(4-(2-hydroxypropan-2-yl)phenyl)pyridin-2(1H)-one] |
| 165 | O=c1ccc(-c2ccc(CCCO)cc2)cn1Cc1ccc(Cl)cc1 [2-16, 1-(4-Chlorobenzyl)-5-(4-(3-hydroxypropyl)phenyl)pyridin-2(1H)-one] |
| 120 to 121 | CCOc1ccccc1-c1ccc(=O)n(Cc2ccc(Cl)cc2)c1 [2-20] |
| 118 | CC(C)Oc1ccc(-c2ccc(=O)n(Cc3ccc(Cl)cc3)c2)cc1 [2-21] |
| 109 | COCc1ccc(-c2ccc(=O)n(Cc3ccc(Cl)cc3)c2)cc1 [2-24] |
| 109 | CCOCc1ccc(-c2ccc(=O)n(Cc3ccc(Cl)cc3)c2)cc1 [2-25, 1-(4-Chlorobenzyl)-5-(4-(ethoxymethyl)phenyl)pyridin-2(1H)-one] |
| 91 | CC(C)COCc1ccc(-c2ccc(=O)n(Cc3ccc(Cl)cc3)c2)cc1 [2-26] |
| 101 | O=c1ccc(-c2ccc(COCc3ccccc3)cc2)cn1Cc1ccc(Cl)cc1 [2-27] |
| 79 | COCCOCc1ccc(-c2ccc(=O)n(Cc3ccc(Cl)cc3)c2)cc1 [2-28] |
| 162 | CC(=O)c1ccc(-c2ccc(=O)n(Cc3ccc(Cl)cc3)c2)cc1 [2-30] |

| melting point [°C] | Compound |
| --- | --- |
| 180 | O=C(O)Cc1ccc(-c2ccc(=O)n(Cc3ccc(Cl)cc3)c2)cc1 [2-31] |
| 175 | COC(=O)c1ccc(-c2ccc(=O)n(Cc3ccc(Cl)cc3)c2)cc1 [2-33] |
| 105 | COC(=O)CCc1ccc(-c2ccc(=O)n(Cc3ccc(Cl)cc3)c2)cc1 [2-36] |
| 175 | COc1ccc(-c2ccc(=O)n(Cc3ccc(Cl)cc3)c2)cc1N [2-37] |
| 106 | COCCNc1ccc(-c2ccc(=O)n(Cc3ccc(Cl)cc3)c2)cc1 [2-40] |
| 126 | O=c1ccc(-c2ccc(N3CCOCC3)cc2)cn1Cc1ccc(Cl)cc1 [2-41] |
| 152 | CC(=O)NCCOCc1ccc(-c2ccc(=O)n(Cc3ccc(Cl)cc3)c2)cc1 [2-42, N-(2-(4-(1-(4-Chlorobenzyl)-6-oxo-1,6-dihydropyridin-3-yl)benzyloxy)ethyl)acetamide] |
| 176 | CN(C)C(=O)c1ccc(-c2ccc(=O)n(Cc3ccc(Cl)cc3)c2)cc1 [2-43] |
| 183 | CNC(=O)Cc1ccc(-c2ccc(=O)n(Cc3ccc(Cl)cc3)c2)cc1 [2-44, 2-(4-(1-(4-Chlorobenzyl)-1,6-dihydro-6-oxopyridin-3-yl)phenyl)-N-methylacetamide] |
| 161 | CN(C)C(=O)Cc1ccc(-c2ccc(=O)n(Cc3ccc(Cl)cc3)c2)cc1 [2-45] |
| 197 | CNC(=O)CCc1ccc(-c2ccc(=O)n(Cc3ccc(Cl)cc3)c2)cc1 [2-46] |
| 104 | CN(C)C(=O)CCc1ccc(-c2ccc(=O)n(Cc3ccc(Cl)cc3)c2)cc1 [2-47] |
| 155 | CN(C)c1ccc(-c2ccc(=O)n(Cc3ccc(Cl)cc3)c2)cc1 [2-48] |
| 231 | O=c1ccc(-c2ccc(Cc3nn[nH]n3)cc2)cn1Cc1ccc(Cl)cc1 [2-51, 5-(4-((2H-Tetrazol-5-yl)methyl)phenyl)-1-(4-chlorobenzyl)pyridin-2(1H)-one] |
| 132 | CSc1ccc(-c2ccc(=O)n(Cc3ccc(Cl)cc3)c2)cc1 [2-52] |
| 109 | CCSc1ccc(-c2ccc(=O)n(Cc3ccc(Cl)cc3)c2)cc1 [2-53] |
| 199 to 200 | CS(=O)(=O)c1ccc(-c2ccc(=O)n(Cc3ccc(Cl)cc3)c2)cc1 [2-54] |
| 151 | COc1ccc(-c2ccc(=O)n(Cc3ccc(Cl)cc3)c2)cc1NS(C)(=O)=O [2-56, N-(5-(1-(4-Chlorobenzyl)-6-oxo-1,6-dihydropyridin-3-yl)-2-methoxyphenyl)methanesulfonamide] |
| 140 to 144 | O=c1ccc(-c2cnn(Cc3ccccc3)c2)cn1Cc1ccc(Cl)cc1 [2-58] |

More lines, now with the values behind:

| Compound | melting point [°C] |
| --- | --- |
| C[Si](C)(C)c1ccc(-c2ccc(=O)n(Cc3ccccc3)c2)cc1 | 132 |
| Cl.Nc1ccc(-c2ccc(=O)n(Cc3ccc(Cl)cc3F)c2)cc1 | 266 |
| Cc1ccc(-c2ccc(=O)n(Cc3ccccc3)c2)cc1 [1-03] | 110 |
| CCc1ccc(-c2ccc(=O)n(Cc3ccccc3)c2)cc1 [1-04] | 80 |
| CC(C)(C)c1ccc(-c2ccc(=O)n(Cc3ccccc3)c2)cc1 [1-05] | 145 |
| Cc1ccc(-c2ccc(=O)n(Cc3ccccc3)c2)cc1C [1-06] | 118 |
| O=c1ccc(-c2cc(F)cc(F)c2)cn1Cc1ccccc1 [1-09] | 98 |
| O=c1ccc(-c2cccc(Cl)c2)cn1Cc1ccccc1 [1-10] | 120 |
| O=c1ccc(-c2ccc(Cl)c(Cl)c2)cn1Cc1ccccc1 [1-12] | 134 |
| O=c1ccc(-c2ccc(O)cc2)cn1Cc1ccccc1 [1-13] | 202 |
| CCCOc1ccc(-c2ccc(=O)n(Cc3ccccc3)c2)cc1 [1-17] | 88 |
| CC(C)COc1ccc(-c2ccc(=O)n(Cc3ccccc3)c2)cc1 [1-18] | 110 |
| COc1ccc(-c2ccc(=O)n(Cc3ccccc3)c2)cc1OC [1-19] | 120 |
| O=c1ccc(-c2ccc(OC(F)(F)F)cc2)cn1Cc1ccccc1 [1-20] | 115 |
| CC(=O)c1ccc(-c2ccc(=O)n(Cc3ccccc3)c2)cc1 [1-23] | 118 |
| CCOC(=O)c1ccc(-c2ccc(=O)n(Cc3ccccc3)c2)cc1 [1-24] | 115 |
| N#Cc1ccc(-c2ccc(=O)n(Cc3ccccc3)c2)cc1 [1-25] | 131 |
| CN(C)c1ccc(-c2ccc(=O)n(Cc3ccccc3)c2)cc1 [1-26] | 153 |
| O=c1ccc(-c2cccc([N+](=O)[O-])c2)cn1Cc1ccccc1 [1-27] | 149 |
| COc1ccc(-c2ccc(=O)n(Cc3ccccc3)c2)cn1 [1-29] | 180 to 181 |
| O=c1ccc(-c2ccc3[nH]ccc3c2)cn1Cc1ccccc1 [1-30] | 93 |
| O=c1ccc(-c2ccc3ccccc3c2)cn1Cc1ccccc1 [1-32] | 114 |
